Experimental data taken from publication PMC6150229, “Simultaneous Determination of Twenty-Five Compounds in Rat Plasma Using Ultra-High Performance Liquid Chromatography-Polarity Switching Tandem Mass Spectrometry and Its Application to a Pharmacokinetic Study” (Molecules : A Journal of Synthetic Chemistry and Natural …, 2017).

How the values were obtained:
[1] = Pharmacokinetic study in sham and myocardial ischemia model rats after a single oral dose of QSKL (UHPLC-psMS/MS of plasma, non-compartmental analysis); settings: for AUC(0-inf): AUC0–∞
Description: (§1) Twelve male Spargue-Dawley rats (200 ± 20 g) were supplied by Vital River Laboratory Animal Technology Co. Ltd. (Beijing, China). […] The rats were acclimated under a humidity (50%) controlled room at 22–25 °C with a 12 h light-dark cycle, and standard diet and water were provided ad libitum for one week.
(§2) Afterwards, all rats were randomly divided into two groups, namely sham and model groups. The myocardial ischemia model was simulated by left anterior descending (LAD) coronary artery ligation [12], whilst the rats belonging to the sham group received the similar surgery, however no actual ligation in LAD. All animals were fasted overnight with free access to water prior to oral dosing. Aliquots (250 μL) of blood were sampled at 0 (pre-dose), 0.08, 0.25, 0.5, 0.75, 1, 1.5, 2, 4, 6, 8, 12, and 24 h from venous around eye socket into heparinized tubes after a single oral dosing of 8.0 g/kg of QSKL and the collected blood samples were immediately subjected for 4000 rpm centrifugation for 10 min at 4 °C to harvest the plasma samples. Each 100 μL aliquot of plasma sample was transferred into another Eppendorf tube and stored at −80 °C till use.
(§3) When analysis, 300 μL of internal standards (200 ng/mL for either internal standard) fortified ACN, corresponding to three volumes of plasma, was spiked into each thawed plasma sample and mixed thoroughly. Then, the resulting samples were processed as those calibration samples.
(§4) Individual animal plasma concentrations versus time dataset were subjected to a non-compartmental pharmacokinetic analysis using WinNonlin software (ver. 6.4, Pharsight Corp., Sunnyvale, CA, USA). The pharmacokinetic parameters of each analyte including the maximum plasma concentration (Cmax), the time at which Cmax was achieved (Tmax), the terminal elimination half-life (t1/2), and the area under the plasma concentration versus time curve (AUC0→t along with AUC0→∞) were calculated. Moreover, Lz corresponding to the ratio of the dosage and AUC0→∞, as well as mean residence time (MRT) that was defined as the ratio of the area under the first moment curve from time 0 to infinity (AUMC0→∞/AUC0→∞) was also calculated. All results are expressed as mean ± SD. Comparisons regarding the pharmacokinetic parameters were carried out between sham and model groups using Student’s t-test, and p values less than 0.05 were considered to be significant.

in vivo = settings: male, Sprague-Dawley, rat, po, 8 g/kg, oral administration of QSKL, plasma, mean ± SD, n = 6; for AUC(0-t): AUC0–t; for AUC(0-inf): AUC0–∞
Description: as §1, §2, §3, §4

[2] = QSKL-treated plasma samples, sham and model rats, single oral dose 8.0 g/kg
[3] = model group (MG, myocardial ischemia) rats
[4] = t1/2, model group (MG, myocardial ischemia) rats
[5] = male, Sprague-Dawley, rat, plasma, po, 8 g/kg, AUC0–t, model group (MG, myocardial ischemia) rats, oral administration of QSKL, plasma, mean ± SD, n = 6
[6] = male, Sprague-Dawley, rat, plasma, po, 8 g/kg, AUC0–t, sham group (SG) rats, oral administration of QSKL, plasma, mean ± SD, n = 6
[7] = male, Sprague-Dawley, rat, plasma, po, 8 g/kg, model group (MG, myocardial ischemia) rats, oral administration of QSKL, plasma, mean ± SD, n = 6
[8] = male, Sprague-Dawley, rat, plasma, po, 8 g/kg, sham group (SG) rats, oral administration of QSKL, plasma, mean ± SD, n = 6
[9] = male, Sprague-Dawley, rat, plasma, po, 8 g/kg, Cmax, model group (MG, myocardial ischemia) rats, oral administration of QSKL, plasma, mean ± SD, n = 6
[10] = male, Sprague-Dawley, rat, plasma, po, 8 g/kg, Cmax, sham group (SG) rats, oral administration of QSKL, plasma, mean ± SD, n = 6
[11] = male, Sprague-Dawley, rat, plasma, po, 8 g/kg, t1/2, model group (MG, myocardial ischemia) rats, oral administration of QSKL, plasma, mean ± SD, n = 6
[12] = male, Sprague-Dawley, rat, plasma, po, 8 g/kg, t1/2, sham group (SG) rats, oral administration of QSKL, plasma, mean ± SD, n = 6
[13] = male, Sprague-Dawley, rat, plasma, po, 8 g/kg, AUC0→t, model (myocardial ischemia, LAD ligation) rats, single oral dose of 8.0 g/kg QSKL, mean ± SD, n = 6
[14] = male, Sprague-Dawley, rat, plasma, po, 8 g/kg, AUC0→t, sham rats, single oral dose of 8.0 g/kg QSKL, mean ± SD, n = 6
[15] = male, Sprague-Dawley, rat, plasma, po, 8 g/kg, rats, after oral dosing QSKL 8.0 g/kg
[16] = rats, after oral dosing QSKL 8.0 g/kg

Row | SMILES | AUC(0-t) [1, 5] [ng·h/mL] | AUC(0-t) [1, 6] [ng·h/mL] | AUC(0-inf) [1, 7] [ng·h/mL] | AUC(0-inf) [1, 8] [ng·h/mL] | Cmax [1, 9] [ng/mL] | Cmax [1, 10] [ng/mL] | MRT [1, 7] [h] | MRT [1, 8] [h] | Tmax [1, 7] [h] | Tmax [1, 8] [h] | half-life [1, 11] [h] | half-life [1, 12] [h] | distribution in rat plasma (quantifiable or not) [1, 2] | other results
1 | CCN1C[C@]2(COC)[C@H](O)C[C@H](OC)[C@@]34[C@@H]5C[C@@]6(O)[C@H](OC(=O)c7ccccc7)[C@@H]5[C@@](OC(C)=O)([C@@H]([C@H](OC)[C@H]23)[C@@H]14)[C@@H](O)[C@@H]6OC [aconitine] | – | – | – | – | – | – | – | – | – | – | – | – | unquantifiable in most QSKL-treated samples | –
2 | COCC12CCC(OC)C34C5CC6(O)C(OC)C(O)C(O)(C5C6OC(=O)c5ccccc5)C(C(OC)C13)C4N(C)C2 (stereo not shown) [benzoylhypaconine] | – | – | – | – | – | – | – | – | – | – | – | – | quantifiable in most samples | AUC(0-t) (in vivo; [3]): 0.926 ± 0.279 ng·h/mL; AUC(0-t) (in vivo; sham group (SG) rats): 0.985 ± 0.167 ng·h/mL; AUC(0-inf) (in vivo; [3]): 1.66 ± 0.331 ng·h/mL; AUC(0-inf) (in vivo; sham group (SG) rats): 1.78 ± 0.905 ng·h/mL; Cmax (in vivo; [3]): 0.466 ± 0.302 ng/mL; Cmax (in vivo; sham group (SG) rats): 0.284 ± 0.209 ng/mL; MRT (in vivo; [3]): 23.6 ± 7.39 h; MRT (in vivo; sham group (SG) rats): 22.7 ± 14.9 h; Tmax (in vivo; [3]): 0.43 ± 0.36 h; Tmax (in vivo; sham group (SG) rats): 0.48 ± 0.33 h; half-life (in vivo; [4]): 16.3 ± 5.46 h; half-life (in vivo; t1/2, sham group (SG) rats): 15.6 ± 9.06 h
3 | COCC12CN(C)C3C4C(OC)C1C3(C(OC)CC2O)C1CC2(O)C(OC)C(O)C4(O)C1C2OC(=O)c1ccccc1 (stereo not shown) [benzoylmesaconine] | – | – | – | – | – | – | – | – | – | – | – | – | quantifiable in most samples | AUC(0-t) (in vivo; [3]): 7.34 ± 7.1 ng·h/mL; AUC(0-t) (in vivo; sham group (SG) rats): 5.82 ± 2.93 ng·h/mL; AUC(0-inf) (in vivo; [3]): 11.1 ± 11 ng·h/mL; AUC(0-inf) (in vivo; sham group (SG) rats): 8.3 ± 6.14 ng·h/mL; Cmax (in vivo; [3]): 3.1 ± 2.49 ng/mL; Cmax (in vivo; sham group (SG) rats): 1.15 ± 0.778 ng/mL; MRT (in vivo; [3]): 13.7 ± 6.58 h; MRT (in vivo; sham group (SG) rats): 20.1 ± 10.3 h; Tmax (in vivo; [3]): 0.47 ± 0.33 h; Tmax (in vivo; sham group (SG) rats): 0.42 ± 0.37 h; half-life (in vivo; [4]): 9.77 ± 5.36 h; half-life (in vivo; t1/2, sham group (SG) rats): 13 ± 6.34 h
4 | CC1(C)[C@@H](O)CC[C@]2(C)[C@H]3C(=O)C=C4[C@@H]5C[C@@](C)(C(=O)O)CC[C@]5(C)CC[C@@]4(C)[C@]3(C)CC[C@@H]12 [glycyrrhetic acid] | 5040 ± 1860 | 3200 ± 298 | 14500 ± 5750 | – | – | 230 ± 57.1 | 41.9 ± 21.5 | – | 13.3 ± 8.55 | 14 ± 4.9 | 26.3 ± 15.6 | – | – | AUC(0-t) [1, 13]: 5040 ± 1860 ng·h/mL; AUC(0-t) [1, 14]: 3200 ± 298 ng·h/mL; Cmax ([1]; male, Sprague-Dawley, rat, plasma, po, 8 g/kg, Cmax, sham rats, single oral dose of 8.0 g/kg QSKL, mean ± SD, n = 6): 230 ± 57.1 ng/mL; Tmax [1, 15]: > 12 h; Cmax ([1]; model (myocardial ischemia, LAD ligation) rats, single oral dose of 8.0 g/kg QSKL, mean ± SD, n = 6): 376 ± 196 ng/mL; Cmax ([1]; model group (MG, myocardial ischemia) rats, oral administration of QSKL, plasma, mean ± SD, n = 6): 376 ± 196 ng/mL; shape of plasma concentration-time profile [1, 16]: Multiple-peak profiles
5 | CC1(C)[C@@H](O[C@H]2O[C@H](C(=O)O)[C@@H](O)[C@H](O)[C@H]2O[C@@H]2O[C@H](C(=O)O)[C@@H](O)[C@H](O)[C@H]2O)CC[C@]2(C)[C@H]3C(=O)C=C4[C@@H]5C[C@@](C)(C(=O)O)CC[C@]5(C)CC[C@@]4(C)[C@]3(C)CC[C@@H]12 [glycyrrhizic acid] | 72.8 ± 27.8 | 37.9 ± 7.11 | 170 ± 69.1 | 130 ± 69.1 | 8.87 ± 5.97 | 3.34 ± 1.12 | 40.2 ± 21.7 | 63.7 ± 34.4 | – | 1.46 ± 1.35 | 27.8 ± 14.2 | 43.2 ± 25.4 | quantifiable in most samples | AUC(0-t) [1, 13]: 72.8 ± 27.8 ng·h/mL; AUC(0-t) [1, 14]: 37.9 ± 7.11 ng·h/mL; shape of plasma concentration-time profile [1, 16]: Multiple-peak profiles
6 | C[C@@H]1O[C@@H](O[C@@H]2[C@@H](O)[C@H](OCCc3ccc(O)c(O)c3)O[C@H](COC(=O)/C=C/c3ccc(O)c(O)c3)[C@H]2O)[C@H](O)[C@H](O)[C@H]1O [isoacteoside] | – | – | – | – | – | – | – | – | – | – | – | – | unquantifiable in most QSKL-treated samples | –
7 | C=CC(C)(C)c1cc(/C=C/C(=O)c2ccc(O)cc2)c(OC)cc1O [licochalcone A] | – | – | – | – | – | – | – | – | – | – | – | – | unquantifiable in most QSKL-treated samples | –

Continued, in another order:

Row | AUC(0-t) [1, 5] [ng·h/mL] | AUC(0-t) [1, 6] [ng·h/mL] | AUC(0-inf) [1, 7] [ng·h/mL] | AUC(0-inf) [1, 8] [ng·h/mL] | Cmax [1, 9] [ng/mL] | Cmax [1, 10] [ng/mL] | MRT [1, 7] [h] | MRT [1, 8] [h] | Tmax [1, 7] [h] | Tmax [1, 8] [h] | half-life [1, 11] [h] | half-life [1, 12] [h] | SMILES | distribution in rat plasma (quantifiable or not) [1, 2] | other results
8 | 0.89 ± 0.284 | 1.03 ± 0.181 | 1.04 ± 0.268 | 3.09 ± 1.95 | 0.347 ± 0.197 | 0.3 ± 0.244 | 15 ± 4.54 | 55.9 ± 34.6 | 0.28 ± 0.24 | 0.33 ± 0.29 | 9.27 ± 3.21 | 38.2 ± 24.5 | COc1ccc(-c2coc3cc(O)ccc3c2=O)cc1O [calycosin] | quantifiable in most samples | –
9 | 1.2 ± 0.482 | 0.966 ± 0.351 | 1.32 ± 0.472 | 1.22 ± 0.609 | 0.47 ± 0.291 | 0.243 ± 0.127 | 5.47 ± 2.56 | 7 ± 2.97 | 0.51 ± 0.46 | 0.61 ± 0.53 | 3.81 ± 1.89 | 4.7 ± 2.32 | COc1ccc(-c2coc3cc(O)ccc3c2=O)cc1 [formononetin] | quantifiable in most samples | –
10 | 2.4 ± 2.04 | – | 2.2 ± 1.77 | – | 1.02 ± 0.692 | – | 18.7 ± 16.7 | – | 0.56 ± 0.38 | – | 16.1 ± 11.3 | – | C[C@]1(OC(=O)/C=C/c2ccccc2)C[C@@H](O)[C@]2(O)C=CO[C@@H](O[C@@H]3O[C@H](CO)[C@@H](O)[C@H](O)[C@H]3O)[C@@H]21 [harpagoside] | – | Cmax ([1]; male, Sprague-Dawley, rat, plasma, po, 8 g/kg, Cmax, model (myocardial ischemia, LAD ligation) rats, single oral dose of 8.0 g/kg QSKL, mean ± SD, n = 6): 1.02 ± 0.692 ng/mL; distribution in rat plasma (quantifiable or not) ([1]; plasma of the model group, single oral dose 8.0 g/kg QSKL): always quantifiable; distribution in rat plasma (quantifiable or not) ([1]; samples from the sham group, single oral dose 8.0 g/kg QSKL): lower than its LOQ
11 | 1.56 ± 0.668 | 1.87 ± 1.21 | 1.71 ± 0.74 | 2.07 ± 1.31 | 0.401 ± 0.103 | 0.389 ± 0.137 | 8.14 ± 2.95 | 7.85 ± 0.6 | 0.37 ± 0.28 | 0.15 ± 0.13 | 4.69 ± 2.06 | 4.37 ± 1.37 | O=C(/C=C/c1ccc(O)cc1)c1ccc(O)cc1O [isoliquiritigenin] | – | shape of plasma concentration-time profile [1, 16]: Multiple-peak profiles
12 | 19.5 ± 3.53 | 16.5 ± 3.91 | 29.2 ± 4.1 | 24.9 ± 2.95 | 4.21 ± 3.41 | 2.04 ± 1.07 | 21.1 ± 8.23 | 25.1 ± 13.5 | 0.46 ± 0.25 | 0.37 ± 0.19 | 14.2 ± 5.79 | 15.8 ± 9.38 | COC(=O)C1=CO[C@@H](O[C@@H]2O[C@H](CO)[C@@H](O)[C@H](O)[C@H]2O)[C@@H]2[C@H](C)O[C@@H](O)C[C@H]12 [morroniside] | quantifiable in most samples | –
13 | 4.28 ± 0.678 | 3.18 ± 0.664 | 7.17 ± 3.08 | 4.77 ± 1.45 | 0.349 ± 0.089 | 0.376 ± 0.15 | 26.4 ± 14.9 | 20.9 ± 5.14 | 8.71 ± 8.03 | 0.67 ± 0.3 | 18 ± 10.8 | 13.8 ± 4.05 | Cc1coc2c1C(=O)C(=O)c1c-2ccc2c1CCCC2(C)C [tanshinone IIA] | quantifiable in most samples | AUC(0-t) [1, 13]: 4.28 ± 0.678 ng·h/mL; AUC(0-t) [1, 14]: 3.18 ± 0.664 ng·h/mL; Tmax [1, 15]: 8 h
